Laboratory results taken from publication PMC7162861, “Synthesis, cytotoxicity, pharmacokinetic profile, binding with DNA and BSA of new imidazo[1,2-a]pyrazine-benzo[d]imidazol-5-yl hybrids” (Scientific Reports, 2020).

Legend:
UO-31 = assay: NCI cytotoxicity screen, Renal Cancer panel; assay type: cell-based; conditions: Homo sapiens, single dose 10 µM, negative = lethal, read-out: Percent growth inhibition
Procedure: (§1) Cytotoxicity was performed at National Cancer Institute (NCI), Bethesda, USA as per their protocols.

RXF 393 = assay: NCI cytotoxicity screen, Renal Cancer panel; assay type: cell-based; conditions: Homo sapiens, single dose 10 µM, negative = lethal, read-out: Percent growth inhibition
Procedure: as §1

A498 = assay: NCI cytotoxicity screen, Renal Cancer panel; assay type: cell-based; conditions: Homo sapiens, single dose 10 µM, negative = lethal, read-out: Percent growth inhibition
Procedure: as §1

SN12C = assay: NCI cytotoxicity screen, Renal Cancer panel; assay type: cell-based; conditions: Homo sapiens, single dose 10 µM, negative = lethal, read-out: Percent growth inhibition
Procedure: as §1

ACHN = assay: NCI cytotoxicity screen, Renal Cancer panel; assay type: cell-based; conditions: Homo sapiens, single dose 10 µM, negative = lethal, read-out: Percent growth inhibition
Procedure: as §1

CAKI-1 = assay: NCI cytotoxicity screen, Renal Cancer panel; assay type: cell-based; conditions: Homo sapiens; CAKI-1; single dose 10 µM; negative = lethal; read-out: Percent growth inhibition
Procedure: as §1

EXVX = assay: NCI cytotoxicity screen, Non-Small Cell Lung Cancer panel; assay type: cell-based; conditions: Homo sapiens; EXVX; single dose 10 µM; negative = lethal; read-out: Percent growth inhibition
Procedure: as §1

HOP-62 = assay: as above; assay type: cell-based; conditions: Homo sapiens, single dose 10 µM, negative = lethal, read-out: Percent growth inhibition
Procedure: as §1

A549/ATCC = assay: as above; assay type: cell-based; conditions: Homo sapiens; A549/ATCC; single dose 10 µM; negative = lethal; read-out: Percent growth inhibition
Procedure: as §1

NCI-H460 = assay: as above; assay type: cell-based; conditions: Homo sapiens, single dose 10 µM, negative = lethal, read-out: Percent growth inhibition
Procedure: as §1

SK-OV-3 = assay: NCI cytotoxicity screen, Ovarian Cancer panel; assay type: cell-based; conditions: Homo sapiens, single dose 10 µM, negative = lethal, read-out: Percent growth inhibition
Procedure: as §1

OVCAR-8 = assay: NCI cytotoxicity screen, Ovarian Cancer panel; assay type: cell-based; conditions: Homo sapiens, single dose 10 µM, negative = lethal, read-out: Percent growth inhibition
Procedure: as §1

IGROV1 = assay: NCI cytotoxicity screen, Ovarian Cancer panel; assay type: cell-based; conditions: Homo sapiens, IGROV-1, single dose 10 µM, negative = lethal, read-out: Percent growth inhibition
Procedure: as §1

NCI/ADR-RES = assay: NCI cytotoxicity screen, Ovarian Cancer panel; assay type: cell-based; conditions: Homo sapiens, single dose 10 µM, negative = lethal, read-out: Percent growth inhibition
Procedure: as §1

HCC-2998 = assay: NCI cytotoxicity screen, Colon Cancer panel; assay type: cell-based, human; conditions: Homo sapiens; HCC-2998; single dose 10 µM; negative = lethal; read-out: Percent growth inhibition
Procedure: as §1

SW-620 = assay: NCI cytotoxicity screen, Colon Cancer panel; assay type: cell-based, human; conditions: Homo sapiens, single dose 10 µM, negative = lethal, read-out: Percent growth inhibition
Procedure: as §1

KM12 = assay: NCI cytotoxicity screen, Colon Cancer panel; assay type: cell-based, human; conditions: Homo sapiens, single dose 10 µM, negative = lethal, read-out: Percent growth inhibition
Procedure: as §1

M14 = assay: NCI cytotoxicity screen, Melanoma panel; assay type: cell-based, human; conditions: Homo sapiens, single dose 10 µM, negative = lethal, read-out: Percent growth inhibition
Procedure: as §1

UACC-62 = assay: NCI cytotoxicity screen, Melanoma panel; assay type: cell-based, human; conditions: Homo sapiens, single dose 10 µM, negative = lethal, read-out: Percent growth inhibition
Procedure: as §1

LOX IMVI = assay: NCI cytotoxicity screen, Melanoma panel; assay type: cell-based, human; conditions: Homo sapiens, single dose 10 µM, negative = lethal, read-out: Percent growth inhibition
Procedure: as §1

UACC-257 = assay: NCI cytotoxicity screen, Melanoma panel; assay type: cell-based; conditions: Homo sapiens, single dose 10 µM, negative = lethal, read-out: Percent growth inhibition
Procedure: as §1

MDA-MB-435 = assay: NCI cytotoxicity screen, Melanoma panel; assay type: cell-based; conditions: Homo sapiens, MDA-MB-435, read-out: Percent growth inhibition
Procedure: as §1

MALME-3M = assay: NCI cytotoxicity screen, Melanoma panel; assay type: cell-based; conditions: Homo sapiens; MALME-3M; single dose 10 µM; negative = lethal; read-out: Percent growth inhibition
Procedure: as §1

SK-MEL-5 = assay: NCI cytotoxicity screen, Melanoma panel; assay type: cell-based; conditions: Homo sapiens, single dose 10 µM, negative = lethal, read-out: Percent growth inhibition
Procedure: as §1

SK-MEL-28 = assay: NCI cytotoxicity screen, Melanoma panel; assay type: cell-based; conditions: Homo sapiens, single dose 10 µM, negative = lethal, read-out: Percent growth inhibition
Procedure: as §1

MCF7 = assay: NCI cytotoxicity screen, Breast Cancer panel; assay type: cell-based; conditions: Homo sapiens, single dose 10 µM, negative = lethal, read-out: Percent growth inhibition
Procedure: as §1

T-47D = assay: NCI cytotoxicity screen, Breast Cancer panel; assay type: cell-based; conditions: Homo sapiens, T47D, T-47D; single dose 10 µM; negative = lethal; read-out: Percent growth inhibition
Procedure: as §1

MDA-MB-231/ATCC = assay: NCI cytotoxicity screen, Breast Cancer panel; assay type: cell-based; conditions: Homo sapiens, MDA-MB-231, read-out: Percent growth inhibition
Procedure: as §1

MDA-MB-468 = assay: NCI cytotoxicity screen, Breast Cancer panel; assay type: cell-based; conditions: Homo sapiens, single dose 10 µM, negative = lethal, read-out: Percent growth inhibition
Procedure: as §1

HS 578 T = assay: NCI cytotoxicity screen, Breast Cancer panel; assay type: cell-based; conditions: Homo sapiens; HS 578T; single dose 10 µM; negative = lethal; read-out: Percent growth inhibition
Procedure: as §1

BT-549 = assay: NCI cytotoxicity screen, Breast Cancer panel; assay type: cell-based; conditions: Homo sapiens, single dose 10 µM, negative = lethal, read-out: Percent growth inhibition
Procedure: as §1

786-0 = assay: NCI cytotoxicity screen, Renal Cancer panel; assay type: cell-based, human; conditions: Homo sapiens, single dose 10 µM, negative = lethal, read-out: Percent growth inhibition
Procedure: as §1

TK-10 = assay: NCI cytotoxicity screen, Renal Cancer panel; assay type: cell-based, human; conditions: Homo sapiens, single dose 10 µM, negative = lethal, read-out: Percent growth inhibition
Procedure: as §1

[1] = Experimental log P, shake-flask method; assay type: physicochemical; conditions: n-octanol/phosphate buffer pH 7.4, read-out: Exp. Log P
Procedure: Partition coefficients or experimental log P values of all synthesized compounds (9–23, 30 and 31) were calculated using the shake-flask method. Log P values were determined using n-octanol and phosphate buffer (pH = 7.4) at 10:1 ratio of volumes. Stock solutions (10^−3 M) of compounds were prepared in DMSO. Glass vials were used to make final solutions i.e. stock solution (250 µL) and phosphate buffer (125 µL). To record the absorbance, wavelength was selected based on λmax of the respective compound. Initial absorbance (Ai) for every compound was noted consuming the stock solution in the buffer phase. Now added n-octanol to every vial and shaken well using a mechanical shaker for 50 minutes. To get separation of both phases, glass vials were centrifuged for 35 min. at 2500 rpm. Then, the layer of octanol was separated from glass vial. The final absorbance (Af) of each compound was recorded by using the buffer layer. The values of P for compounds were determined by the following equation (Eq. 8):8 P=Ai−Af/Af×Vw/Vo

HCT-116 = assay: NCI cytotoxicity screen, Colon Cancer panel; assay type: cell-based; conditions: Homo sapiens, single dose 10 µM, negative = lethal, read-out: Percent growth inhibition
Procedure: as §1

COLO 205 = assay: NCI cytotoxicity screen, Colon Cancer panel; assay type: cell-based; conditions: Homo sapiens, single dose 10 µM, negative = lethal, read-out: Percent growth inhibition
Procedure: as §1

HT29 = assay: NCI cytotoxicity screen, Colon Cancer panel; assay type: cell-based; conditions: Homo sapiens, HT-29; HT29; single dose 10 µM; negative = lethal; read-out: Percent growth inhibition
Procedure: as §1

HCT-15 = assay: NCI cytotoxicity screen, Colon Cancer panel; assay type: cell-based; conditions: Homo sapiens, single dose 10 µM, negative = lethal, read-out: Percent growth inhibition
Procedure: as §1

NCI-H226 = assay: NCI cytotoxicity screen, Non-Small Cell Lung Cancer panel; assay type: cell-based, human; conditions: Homo sapiens, single dose 10 µM, negative = lethal, read-out: Percent growth inhibition
Procedure: as §1

NCI-522 = assay: as above; assay type: cell-based, human; conditions: Homo sapiens; NCI-522; single dose 10 µM; negative = lethal; read-out: Percent growth inhibition
Procedure: as §1

NCI-H322M = assay: as above; assay type: cell-based, human; conditions: Homo sapiens, single dose 10 µM, negative = lethal, read-out: Percent growth inhibition
Procedure: as §1

NCI-H23 = assay: as above; assay type: cell-based, human; conditions: Homo sapiens, single dose 10 µM, negative = lethal, read-out: Percent growth inhibition
Procedure: as §1

SK-MEL-2 = assay: NCI cytotoxicity screen, Melanoma panel; assay type: cell-based; conditions: Homo sapiens, single dose 10 µM, negative = lethal, read-out: Percent growth inhibition
Procedure: as §1

c1cn2cc(-c3ccc4c(c3)ncn4C3CCCCC3)nc(-c3ccc4c(c3)ncn4C3CCCCC3)c2n1 [Compound 30, 6,8-bis(1-cyclohexyl-1H-benzo[d]imidazol-5-yl)imidazo[1,2-a]pyrazine]
inhibition at 10 µM (UO-31): 26.8%
inhibition at 10 µM (RXF 393): 4.3%
inhibition at 10 µM (A498): < 1%
inhibition at 10 µM (SN12C): 13.9%
inhibition at 10 µM (ACHN): 4.08%
inhibition at 10 µM (CAKI-1): 9.21%
inhibition at 10 µM (EXVX): 9.56%
inhibition at 10 µM (HOP-62): 20.8%
inhibition at 10 µM (A549/ATCC): 4.93%
inhibition at 10 µM (NCI-H460): 1.35%
inhibition at 10 µM (SK-OV-3): 11.8%
inhibition at 10 µM (OVCAR-8): 11.6%
inhibition at 10 µM (IGROV1): < 1%
inhibition at 10 µM (NCI/ADR-RES): 4.12%
inhibition at 10 µM (HCC-2998): < 1%
inhibition at 10 µM (SW-620): < 1%
inhibition at 10 µM (KM12): 56.2%
inhibition at 10 µM (M14): < 1%
inhibition at 10 µM (UACC-62): 12.4%
inhibition at 10 µM (LOX IMVI): 11.7%
inhibition at 10 µM (UACC-257): 5.79%
inhibition at 10 µM (MDA-MB-435): < 1%
inhibition at 10 µM (MALME-3M): 8.16%
inhibition at 10 µM (SK-MEL-5): 20.5%
inhibition at 10 µM (SK-MEL-28): < 1%
inhibition at 10 µM (MCF7): 23.9%
inhibition at 10 µM (T-47D): 34.7%
inhibition at 10 µM (MDA-MB-231/ATCC): 16.8%
inhibition at 10 µM (MDA-MB-468): 3.28%
inhibition at 10 µM (HS 578 T): 18.9%
inhibition at 10 µM (BT-549): 5.9%
inhibition at 10 µM (786-0): 13.9%
inhibition at 10 µM (TK-10): < 1%
logP [1]: 2.16
inhibition at 10 µM (HCT-116): 15.9%
inhibition at 10 µM (COLO 205): < 1%
inhibition at 10 µM (HT29): 28.1%
inhibition at 10 µM (HCT-15): 26%
inhibition at 10 µM (NCI-H226): 13.1%
inhibition at 10 µM (NCI-522): 17.7%
inhibition at 10 µM (NCI-H322M): < 1%
inhibition at 10 µM (NCI-H23): 4.61%

c1ccc2c(-c3cn4ccnc4c(-c4ccc5c(c4)ncn5C4CCCCC4)n3)cccc2c1 [Compound 12, 8-(1-cyclohexyl-1H-benzo[d]imidazol-5-yl)-6-(naphthalen-1-yl)imidazo[1,2-a]pyrazine]
inhibition at 10 µM (UO-31): 37.9%
inhibition at 10 µM (RXF 393): 0.15%
inhibition at 10 µM (A498): < 1%
inhibition at 10 µM (SN12C): 13.6%
inhibition at 10 µM (ACHN): 8.22%
inhibition at 10 µM (CAKI-1): 20.7%
inhibition at 10 µM (EXVX): 29.6%
inhibition at 10 µM (HOP-62): 13.2%
inhibition at 10 µM (A549/ATCC): 36.2%
inhibition at 10 µM (NCI-H460): 7.35%
inhibition at 10 µM (SK-OV-3): < 1%
inhibition at 10 µM (OVCAR-8): 24%
inhibition at 10 µM (IGROV1): 3.68%
inhibition at 10 µM (NCI/ADR-RES): 11.8%
inhibition at 10 µM (HCC-2998): < 1%
inhibition at 10 µM (SW-620): 1.43%
inhibition at 10 µM (KM12): 8.69%
inhibition at 10 µM (M14): 0.39%
inhibition at 10 µM (UACC-62): 21%
inhibition at 10 µM (LOX IMVI): 11.4%
inhibition at 10 µM (UACC-257): 35.5%
inhibition at 10 µM (MDA-MB-435): 4.07%
inhibition at 10 µM (MALME-3M): < 1%
inhibition at 10 µM (SK-MEL-5): 2.13%
inhibition at 10 µM (SK-MEL-28): < 1%
inhibition at 10 µM (SK-MEL-2): 20.6%
inhibition at 10 µM (MCF7): 35.7%
inhibition at 10 µM (T-47D): 22%
inhibition at 10 µM (MDA-MB-231/ATCC): 18.2%
inhibition at 10 µM (MDA-MB-468): 5.23%
inhibition at 10 µM (HS 578 T): 4.25%
inhibition at 10 µM (BT-549): 1.57%
inhibition at 10 µM (786-0): 13.3%
inhibition at 10 µM (TK-10): 5.82%
logP [1]: 1.48
inhibition at 10 µM (HCT-116): 23.7%
inhibition at 10 µM (COLO 205): < 1%
inhibition at 10 µM (HT29): 16.5%
inhibition at 10 µM (HCT-15): 15.3%
inhibition at 10 µM (NCI-H226): 17.9%
inhibition at 10 µM (NCI-522): 33%
inhibition at 10 µM (NCI-H322M): 8.38%
inhibition at 10 µM (NCI-H23): 9.02%
